Target: T1, sGC α1/β1 heterodimer stably expressed in CHO-K1 cell line (CHO-K1/sGC) (Homo sapiens, UniProt Q02108+Q02153)
T1 construct: expressed in transfected cells
T1 sequence (Q02108 1-690): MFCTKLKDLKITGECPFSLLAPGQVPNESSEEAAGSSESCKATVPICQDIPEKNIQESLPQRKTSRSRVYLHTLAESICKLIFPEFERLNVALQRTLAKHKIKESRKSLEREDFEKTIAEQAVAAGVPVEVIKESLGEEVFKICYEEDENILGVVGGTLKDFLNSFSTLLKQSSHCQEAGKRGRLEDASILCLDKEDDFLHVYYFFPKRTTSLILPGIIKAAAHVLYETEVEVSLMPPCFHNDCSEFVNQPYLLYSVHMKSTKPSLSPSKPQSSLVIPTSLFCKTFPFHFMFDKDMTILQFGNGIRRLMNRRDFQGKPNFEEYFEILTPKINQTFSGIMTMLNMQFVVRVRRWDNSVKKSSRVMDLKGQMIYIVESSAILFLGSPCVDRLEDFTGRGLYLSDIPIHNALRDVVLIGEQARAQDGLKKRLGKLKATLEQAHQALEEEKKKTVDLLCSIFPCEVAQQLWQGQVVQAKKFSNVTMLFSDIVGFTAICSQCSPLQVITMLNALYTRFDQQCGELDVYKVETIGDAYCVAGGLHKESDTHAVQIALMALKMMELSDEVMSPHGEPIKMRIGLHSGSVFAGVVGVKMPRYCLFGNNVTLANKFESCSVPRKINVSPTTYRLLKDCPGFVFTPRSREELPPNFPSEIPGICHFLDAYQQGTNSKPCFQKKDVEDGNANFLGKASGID
T1 sequence (Q02153 1-619): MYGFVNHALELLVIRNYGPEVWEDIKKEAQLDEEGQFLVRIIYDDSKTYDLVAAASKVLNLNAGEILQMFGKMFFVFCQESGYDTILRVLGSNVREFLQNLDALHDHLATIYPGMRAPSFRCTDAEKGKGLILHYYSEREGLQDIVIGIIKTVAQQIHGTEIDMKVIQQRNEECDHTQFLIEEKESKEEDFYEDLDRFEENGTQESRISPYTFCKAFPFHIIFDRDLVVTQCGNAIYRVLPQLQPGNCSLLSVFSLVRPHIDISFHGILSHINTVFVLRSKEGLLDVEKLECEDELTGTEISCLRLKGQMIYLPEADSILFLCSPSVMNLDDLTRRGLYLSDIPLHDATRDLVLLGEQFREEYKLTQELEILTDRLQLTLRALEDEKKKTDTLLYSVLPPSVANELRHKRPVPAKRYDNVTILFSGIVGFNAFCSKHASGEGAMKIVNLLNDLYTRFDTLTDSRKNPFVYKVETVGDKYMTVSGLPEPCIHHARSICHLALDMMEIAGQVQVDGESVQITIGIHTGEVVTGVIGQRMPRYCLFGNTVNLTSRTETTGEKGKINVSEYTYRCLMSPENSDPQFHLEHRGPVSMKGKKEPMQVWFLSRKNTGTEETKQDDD
Assay: Cell-based sGC Functional Assay (CASA Assay), cGMP generation
Details: CHO-K1/sGC cells, 1 hr at 37° C., cGMP by HTRF, 4P fit; presence or absence of 1 μM DETA-NO not given; read-out: IP (nM) (inflection point)
Outline: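 CHO-K1 cells stably expressing human sGC α1/β1 (4×10^5/mL, 0.5 mM IBMX) were treated with compounds (2.5% DMSO final) ± 1 μM DETA-NO for 1 hr at 37° C. Intracellular cGMP measured by HTRF. Activity expressed as % of Compound A maximal cGMP; IP and maximum fold induction from 4P fit.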

EC50 [nM] | Structure (SMILES)
428 | Nc1nc(-c2cn3ncnc3c(CCCC(F)(F)F)n2)nc2c1C(c1ccc(F)cn1)(C1CC1)C(=O)N2 (stereo not drawn) [Example 34A, 4-amino-5-cyclopropyl-5-(5-fluoropyridin-2-yl)-2-(8-(4,4,4-trifluorobutyl)-[1,2,4]triazolo[1,5-a]pyrazin-6-yl)-5H-pyrrolo[2,3-d]pyrimidin-6(7H)-one]
1090 | CCCc1nc(-c2nc(O)c3c(n2)NC(=O)C3(c2ccc(F)c(F)c2)C2CC2)cn2ncnc12 (stereo not drawn) [Example 167A, 5-cyclopropyl-5-(3,4-difluorophenyl)-4-hydroxy-2-(8-propyl-[1,2,4]triazolo[1,5-a]pyrazin-6-yl)-5H-pyrrolo[2,3-d]pyrimidin-6(7H)-one]
144 | Cc1ccc(C2(C3CC3)C(=O)Nc3nc(-c4cn5ncnc5c(CCCC(F)(F)F)n4)nc(N)c32)nc1 (racemic) [Example 47B, 4-amino-5-cyclopropyl-5-(5-methylpyridin-2-yl)-2-(8-(4,4,4-trifluorobutyl)-[1,2,4]triazolo[1,5-a]pyrazin-6-yl)-5H-pyrrolo[2,3-d]pyrimidin-6(7H)-one]
277 | O=C1Nc2nc(-c3cn4ncnc4c(CCCC(F)(F)F)n3)nc(O)c2C1(c1ccc(Cl)cc1)C1CC1 (stereo not drawn) [Example 140B, 5-(4-chlorophenyl)-5-cyclopropyl-4-hydroxy-2-(8-(4,4,4-trifluorobutyl)-[1,2,4]triazolo[1,5-a]pyrazin-6-yl)-5H-pyrrolo[2,3-d]pyrimidin-6(7H)-one]
233 | Nc1nc(-c2cn3ncnc3c(CCCC(F)(F)F)n2)nc2c1C(c1ccccn1)(C1CC1)C(=O)N2 (stereo not drawn) [Example 115A, 4-amino-5-cyclopropyl-5-(pyridin-2-yl)-2-(8-(4,4,4-trifluorobutyl)-[1,2,4]triazolo[1,5-a]pyrazin-6-yl)-5H-pyrrolo[2,3-d]pyrimidin-6(7H)-one]
15.8 | CC1(c2ccc(Cl)cc2)C(=O)Nc2nc(-c3cn4ncnc4c(CCC(F)(F)C(F)(F)F)n3)nc(N)c21 (stereo not drawn) [Example 10A, 4-amino-5-(4-chlorophenyl)-5-methyl-2-(8-(3,3,4,4,4-pentafluorobutyl)-[1,2,4]triazolo[1,5-a]pyrazin-6-yl)-5H-pyrrolo[2,3-d]pyrimidin-6(7H)-one]
51.7 | CC1(c2cccc(F)c2)C(=O)Nc2nc(-c3cn4ncnc4c(CCC(F)(F)C(F)(F)F)n3)nc(O)c21 (stereo not drawn) [Example 129B, 5-(3-fluorophenyl)-4-hydroxy-5-methyl-2-(8-(3,3,4,4,4-pentafluorobutyl)-[1,2,4]triazolo[1,5-a]pyrazin-6-yl)-5,7-dihydro-6H-pyrrolo[2,3-d]pyrimidin-6-one]
204 | O=C1Nc2nc(-c3cn4ncnc4c(CCC(F)(F)C(F)(F)F)n3)nc(O)c2C1(c1ccc(F)c(F)c1)C1CC1 (stereo not drawn) [Example 123A, 5-cyclopropyl-5-(3,4-difluorophenyl)-4-hydroxy-2-(8-(3,3,4,4,4-pentafluorobutyl)-[1,2,4]triazolo[1,5-a]pyrazin-6-yl)-5H-pyrrolo[2,3-d]pyrimidin-6(7H)-one]
20 | CC1(c2ccc(Cl)c(F)c2)C(=O)Nc2nc(-c3cn4ncnc4c(CCC(F)(F)F)n3)nc(N)c21 (stereo not drawn) [Example 75B, 4-amino-5-(4-chloro-3-fluorophenyl)-5-methyl-2-(8-(3,3,3-trifluoropropyl)-[1,2,4]triazolo[1,5-a]pyrazin-6-yl)-5H-pyrrolo[2,3-d]pyrimidin-6(7H)-one]
77.4 | Nc1nc(-c2cn3ncnc3c(CCCC(F)(F)F)n2)nc2c1C(c1ccc(F)c(F)c1)(C1CC1)C(=O)N2 (stereo not drawn) [Example 32A, 4-amino-5-cyclopropyl-5-(3,4-difluorophenyl)-2-(8-(4,4,4-trifluorobutyl)-[1,2,4]triazolo[1,5-a]pyrazin-6-yl)-5H-pyrrolo[2,3-d]pyrimidin-6(7H)-one]
1520 | CCCc1nc(-c2nc(O)c3c(n2)NC(=O)[C@@]3(C)c2ccc(F)cc2)cn2ncnc12 [Example 165A, (S)-5-(4-fluorophenyl)-4-hydroxy-5-methyl-2-(8-propyl-[1,2,4]triazolo[1,5-a]pyrazin-6-yl)-5,7-dihydro-6H-pyrrolo[2,3-d]pyrimidin-6-one]
1220 | O=C1Nc2nc(-c3cn4ncnc4c(CCCC(F)(F)F)n3)nc(O)c2C1(c1ccc(F)cn1)C1CC1 (stereo not drawn) [Example 150A, 5-cyclopropyl-5-(5-fluoropyridin-2-yl)-4-hydroxy-2-(8-(4,4,4-trifluorobutyl)-[1,2,4]triazolo[1,5-a]pyrazin-6-yl)-5,7-dihydro-6H-pyrrolo[2,3-d]pyrimidin-6-one]
763 | C[C@@]1(c2ccc(F)cc2)C(=O)Nc2nc(-c3cn4ncnc4c(Cc4cccc(O)c4)n3)nc(N)c21 [Example 113B, (S)-4-amino-5-(4-fluorophenyl)-2-(8-(3-hydroxybenzyl)-[1,2,4]triazolo[1,5-a]pyrazin-6-yl)-5-methyl-5H-pyrrolo[2,3-d]pyrimidin-6(7H)-one]
416 | Nc1nc(-c2cn3ncnc3c(CCCC(F)(F)F)n2)nc2c1C(c1ccc(C(F)(F)F)cc1)(C1CC1)C(=O)N2 (stereo not drawn) [Example 35A, 4-amino-5-cyclopropyl-2-(8-(4,4,4-trifluorobutyl)-[1,2,4]triazolo[1,5-a]pyrazin-6-yl)-5-(4-(trifluoromethyl)phenyl)-5H-pyrrolo[2,3-d]pyrimidin-6(7H)-one]
90.2 | CC1(c2ccc(C(F)(F)F)cn2)C(=O)Nc2nc(-c3cn4ncnc4c(CCCC(F)(F)F)n3)nc(C(N)=O)c21 (stereo not drawn) [Example 179B, 5-methyl-6-oxo-2-(8-(4,4,4-trifluorobutyl)-[1,2,4]triazolo[1,5-a]pyrazin-6-yl)-5-(5-(trifluoromethyl)pyridin-2-yl)-6,7-dihydro-5H-pyrrolo[2,3-d] pyrimidine-4-carboxamide]
27 | Nc1nc(-c2cn3ncnc3c(CCC(F)(F)C(F)(F)F)n2)nc2c1C(c1ccc(F)c(F)c1)(C1CC1)C(=O)N2 (stereo not drawn) [Example 6A, 4-amino-5-cyclopropyl-5-(3,4-difluorophenyl)-2-(8-(3,3,4,4,4-pentafluorobutyl)-[1,2,4]triazolo[1,5-a]pyrazin-6-yl)-5H-pyrrolo[2,3-d]pyrimidin-6(7H)-one]
13.7 | CCCCc1nc(-c2nc(N)c3c(n2)NC(=O)C3(C)c2ccc(Cl)cn2)cn2ncnc12 (stereo not drawn) [Example 69A, 4-amino-2-(8-butyl-[1,2,4]triazolo[1,5-a]pyrazin-6-yl)-5-(5-chloropyridin-2-yl)-5-methyl-5H-pyrrolo[2,3-d]pyrimidin-6(7H)-one]
154 | CC1(c2ccc(Cl)cc2)C(=O)Nc2nc(-c3cn4ncnc4c(CCC(F)(F)F)n3)nc(N)c21 (stereo not drawn) [Example 76A, 4-amino-5-(4-chlorophenyl)-5-methyl-2-(8-(3,3,3-trifluoropropyl)-[1,2,4]triazolo[1,5-a]pyrazin-6-yl)-5H-pyrrolo[2,3-d]pyrimidin-6(7H)-one]
1470 | CC1(c2ccc(C#N)cn2)C(=O)Nc2nc(-c3cn4ncnc4c(CCC(F)(F)C(F)(F)F)n3)nc(O)c21 (stereo not drawn) [Example 131A, 6-(4-hydroxy-5-methyl-6-oxo-2-(8-(3,3,4,4,4-pentafluorobutyl)-[1,2,4]triazolo[1,5-a]pyrazin-6-yl)-6,7-dihydro-5H-pyrrolo[2,3-d]pyrimidin-5-yl)nicotinonitrile]
98.9 | COc1ccc(C2(C)C(=O)Nc3nc(-c4cn5ncnc5c(CCCC(F)(F)F)n4)nc(N)c32)nc1 (stereo not drawn) [Example 40A, 4-amino-5-(5-methoxypyridin-2-yl)-5-methyl-2-(8-(4,4,4-trifluorobutyl)-[1,2,4]triazolo[1,5-a]pyrazin-6-yl)-5H-pyrrolo[2,3-d]pyrimidin-6(7H)-one]

Same assay, conditions: CHO-K1/sGC cells, 1 hr at 37° C., cGMP by HTRF; presence or absence of 1 μM DETA-NO not given; read-out: % Act. (percent activation relative to maximum cGMP production of Compound A = 100%)

Emax [%] | Structure (SMILES)
70 | CCCc1nc(-c2nc(O)c3c(n2)NC(=O)C3(c2ccc(F)c(F)c2)C2CC2)cn2ncnc12 (stereo not drawn) [Example 167A, 5-cyclopropyl-5-(3,4-difluorophenyl)-4-hydroxy-2-(8-propyl-[1,2,4]triazolo[1,5-a]pyrazin-6-yl)-5H-pyrrolo[2,3-d]pyrimidin-6(7H)-one]

Reference: patent US9822130B2, “Triazolo-pyrazinyl derivatives useful as soluble guanylate cyclase activators” (Merck Sharp & Dohme Corp., priority 2014, dated 2017)
